{"source": "patent US6838476B1", "about": "“Imidazoles with anti-inflammatory activity” (J. Uriach & Cia, SA, priority 1998, dated 2005)", "note": "Structures can show the parent of a compound that is named as a salt."}
{"units": {"melting point": "°C"}}
{"compound": "Cc1ccc(-c2c(Cl)ncn2-c2ccc(S(C)(=O)=O)cc2)cc1Cl", "note": "(as salt: HCl) [4(13), 4-Chloro-5-(3-chloro-4-methylphenyl)-1-(4-methylsulfonylphenyl)-imidazole]", "melting point": "181 to 182"}
{"compound": "COCc1cccc(-c2c(Cl)ncn2-c2ccc(S(C)(=O)=O)cc2)c1", "note": "(as salt: HCl) [4(14), 4-Chloro-5-(3-methoxymethylphenyl)-1-(4-methylsulfonylphenyl)-imidazole]", "melting point": 178}
{"compound": "CS(=O)(=O)c1ccc(-n2cnc(Cl)c2-c2ccc(Cl)nc2)cc1", "note": "(as salt: HCl) [4(16), 4-Chloro-5-(6-chloro-3-pyridyl)-1-(4-methylsulfonylphenyl)imidazole]", "melting point": 223}
{"compound": "CS(=O)(=O)c1ccc(-n2cnc(Cl)c2-c2ccc(Cl)c(Cl)c2)cc1", "note": "[4(4), 4-Chloro-5-(3,4-dichlorophenyl)-1(4-methylsulfonylphenyl)imidazole]", "melting point": "156 to 157"}
{"compound": "CS(=O)(=O)c1ccc(-n2cnc(Cl)c2-c2cnc(Cl)c(Cl)c2)cc1", "note": "[4(19), 4-Chloro-5-(5,6-dichloro-3-pyridyl)-1-(4-methylsulfonylphenyl)imidazole]", "melting point": "223 to 230"}
{"compound": "NS(=O)(=O)c1ccc(-n2cnc(Cl)c2-c2ccc(Cl)c(Cl)c2)cc1", "note": "[13(2), 4-[4-Chloro-5-(3,4-dichlorophenyl)imidazol-1-yl]benzenesulfonamide]", "melting point": 251}
{"compound": "Cc1ccc(-c2cncn2-c2ccc(S(C)(=O)=O)cc2)cc1", "note": "[Example 1(1), 5-(4-Methylphenyl)-1-(4-methylsulfonylphenyl)imidazole]", "melting point": 156}
{"compound": "CS(=O)(=O)c1ccc(-n2cncc2-c2ccc(F)cc2F)cc1", "note": "[Example 1(2), 5-(2,4-Difluorophenyl)-1-(4-methylsulfonylphenyl)imidazole]", "melting point": 119}
{"compound": "CS(=O)(=O)c1ccc(-n2cncc2-c2ccccc2)cc1", "note": "[Example 1(3), 1-(4-Methylsulfonylphenyl)-5-phenylimidazole]", "melting point": 164}
{"compound": "COc1ccc(-c2cncn2-c2ccc(S(C)(=O)=O)cc2)cc1", "note": "[Example 1(5), 5-(4-Methoxyphenyl)-1-(4-methylsulfonylphenyl)imidazole]", "melting point": "185 to 187"}
{"compound": "Cc1ccc(-c2cncn2-c2ccc(S(C)(=O)=O)cc2)cc1F", "note": "[Example 1(8), 5-(3-Fluoro-4-methylphenyl)-1-(4-methylsulfonylphenyl)imidazole]", "melting point": 147}
{"compound": "CS(=O)(=O)c1ccc(-n2cncc2-c2ccccc2F)cc1", "note": "[Example 1(9), 5-(2-Fluorophenyl)-1(4-methylsulfonylphenyl)imidazole]", "melting point": "188 to 189"}
{"compound": "CS(=O)(=O)c1ccc(-n2cncc2-c2ccc(OC(F)(F)F)cc2)cc1", "note": "[Example 1(10), 1-(4-Methylsulfonylphenyl)-5-(4-trifluoromethoxyphenyl)imidazole]", "melting point": "141 to 142"}
{"compound": "COc1cc(-c2cncn2-c2ccc(S(C)(=O)=O)cc2)ccc1C", "note": "[Example 1(14), 5-(3-Methoxy-4-methylphenyl)-1(4-methylsulfonylphenyl)imidazole]", "melting point": "174 to 175"}
{"compound": "CS(=O)(=O)c1ccc(-n2cncc2-c2ccc(Cl)cc2)cc1", "note": "[Example 1(15), 5-(4-Chlorophenyl)-1-(4-methylsulfonylphenyl)imidazole]", "melting point": "192 to 193"}
{"compound": "CS(=O)(=O)c1ccc(-n2cncc2-c2ccc(Cl)nc2)cc1", "note": "[Example 1(16), 5-(6-Chloro-3-pyridyl)-1-(4-methylsulfonylphenyl)imidazole]", "melting point": "191 to 192"}
{"compound": "COc1ccc(-c2cncn2-c2ccc(S(C)(=O)=O)cc2)c(Cl)n1", "note": "[Example 1(18), 5-(2-Chloro-6-methoxy-3-pyridyl)-1-(4-methylsulfonylphenyl)imidazole]", "melting point": "192 to 198"}
{"compound": "CS(=O)(=O)c1ccc(-n2cncc2-c2cnc(Cl)c(Cl)c2)cc1", "note": "[Example 1(19), 5-(5,6-Dichloro-3-pyridyl)-1-(4-methylsulfonylphenyl)imidazole]", "melting point": "192 to 198"}
